Measurements published in US7183268B2, “2-amino-9-[(2-hydroxymethyl) cyclopropylidenemethyl] purine antiviral agents” (Wayne State University, priority 2002, dated 2007).
Like-named read-outs stand apart in the source and are kept apart here.

Experiments:
HSV-1 = HSV-1 ELISA in BSC-1 cells; assay type: cell-based
Method: (§1) Cells and viruses. The routine growth and passage of KB cells was performed in monolayer cultures using minimal essential medium (MEM) with either Hanks salts [MEM(H)] or Earle salts [MEM(E)] supplemented with 10% calf serum. The sodium bicarbonate concentration was varied to meet the buffering capacity required. Cultures of diploid human foreskin fibroblasts (HFF) or MRC-5 cells were grown in medium consisting of MEM(E) with 10% fetal bovine serum. Cells were passaged at 1:2 to 1:10 dilutions according to conventional procedures by using 0.05% trypsin plus 0.02% EDTA in a HEPES buffered salt solution (HBS) (Shipman, C., Jr., Proc. Soc. Exp. Biol. 130:305–310 (1969)) as described previously. (Turk, S. R., et al., Antimicrob. Agents Chemother. 31:544–550 (1987). HFF and MRC-5 cells were passaged only at 1:2 dilutions.
(§2) Virological procedures. Stock HCMV was prepared by infecting HFF cells at a multiplicity of infection (m.o.i.) of <0.01 plaque-forming units (p.f.u.) per cell. Cell growth medium was changed every four days until cytopathology was evident in all cells (approximately 21 days). Supernatant fluids were retained as the virus stock. High titer HSV-1 stocks were prepared by infecting KB cells at an m.o.i. of <0.1 as detailed previously. (Turk, S. R., et al., Antimicrob. Agents Chemother. 31:544–550 (1987). Virus titers were determined using monolayer cultures of HFF cells for HCMV and monolayer cultures of BSC-1 cells for HSV-1 as described earlier. (Prichard, M. N. et al., J. Virol. Methods 28:101–106 (1990). Briefly, HFF or BSC-1 cells were planted as described above in 96-well cluster dishes and incubated overnight at 37° C. in a humidified 3% CO2–97% air atmosphere. The next day cultures were inoculated with HCMV or HSV-1 and serially diluted 1:3 across the remaining eleven columns of the 96-well plate. Cultures were incubated at 37° C. for 2 hr to permit virus adsorption and then virus inoculum was replaced with 0.2 mL of fresh medium. Cultures were incubated for seven days for HCMV, two or three days for HSV-1, medium was removed, and the cell sheets were stained with 0.1% crystal violet in 20% methanol. Plaques were enumerated under 20-fold magnification in wells having the dilution which gave 5 to 20 plaques per well. Virus titers were calculated according to the following formula: Titer (p.f.u./mL)=number of plaques×5×3^n; where n represents the nth dilution of the virus used to infect the well in which plaques were enumerated.
Assays for Antiviral Activity. (b) HSV-1. An enzyme-linked immunosorbent assay (ELISA) was employed to detect HSV-1. 96-well cluster dishes were planted with BSC-1 cells at 10,000 cells per well, in a total volume of 200 μL per well of MEM(E) plus 10% calf serum. After overnight incubation at 37° C., drug and HSV-1 was added at the rate of 100 PFU/well. ELISA plates were blocked with 200 μL per well of 10% calf serum and 0.05% tween in HBS. After incubation for 30 minutes, the blocking agent was rinsed two times with HBS-T. A 1:400 dilution of AP conjugated rabbit anti-HSV-1 antibody in HBS-F was added. Plates were sealed with adhesive sheet, and incubated on rocker for one hour at 37° C. Plates were developed in the dark with 100 μL per well of substrate solution containing p-nitrophenyl phosphate. Plates were read at 492 nm. Drug effects were calculated as a percentage of the reduction in virus in the presence of each drug concentration compared to the titer obtained in the absence of drug. Acyclovir was used as a positive control in all experiments.
Data Analysis. Dose-response relationships were constructed by linearly regressing the percent inhibition of parameters derived in the preceding sections against log drug concentrations. Fifty-percent inhibitory (IC50) concentrations were calculated from the regression lines. Samples containing positive controls (acyclovir for HSV-1, ganciclovir for HCMV, and 2-acetylpyridine thiosemicarbazone for cytotoxicity) were used in all assays. […]

Growing KB cells = assay: Cytotoxicity in growing KB cells (crystal violet staining); assay type: cell-based
Method: as §1
(§3) Cytotoxicity assays. Two different assays were used to explore cytotoxicity of selected compounds as we have detailed previously. (i) Cytotoxicity produced in stationary HFF cells was determined by microscopic inspection of cells used in plaque assays which were not affected by the virus. (ii) The effect of compounds during two population doublings of KB cells was determined by crystal violet staining and spectrophotometric quantitation of dye eluted from stained cells. (Turk, S. R., et al., Antimicrob. Agents Chemother. 35:1060–1065 (1991).
(§4) Data Analysis. Dose-response relationships were constructed by linearly regressing the percent inhibition of parameters derived in the preceding sections against log drug concentrations. Fifty-percent inhibitory (IC50) concentrations were calculated from the regression lines. Samples containing positive controls (acyclovir for HSV-1, ganciclovir for HCMV, and 2-acetylpyridine thiosemicarbazone for cytotoxicity) were used in all assays. Results from sets of assays were rejected if inhibition by the positive control deviated from its mean response by >±1.5 standard deviations.

HCMV = HCMV plaque reduction assay in HFF cells; assay type: cell-based
Method: as §1, §2
Assays for Antiviral Activity. (a) HCMV. The effect of compounds on the replication of HCMV has been measured using a plaque reduction assay. HFF cells in 24-well cluster dishes were infected with approximately 100 p.f.u. of HCMV per cm^2 cell sheet using the procedures detailed above. Following virus adsorption, compounds dissolved in growth medium were added to duplicate wells in three to six selected concentrations. Following incubation at 37° C. for 7 to 10 days, cell sheets were fixed, stained with crystal violet and microscopic plaques enumerated as described above. Drug effects were calculated as a percentage of reduction in number of plaques in the presence of each drug concentration compared to the number observed in the absence of drug. Ganciclovir (GCV) was used as a positive control in all experiments.
as §4

Stationary HFF cells = assay: Cytotoxicity in stationary HFF cells (microscopic inspection); assay type: cell-based, human
Method: as §1, §3, §4

IC50 (HSV-1; Human alphaherpesvirus 1) | IC50 (HSV-1) | Structure (SMILES) | IC50 (Growing KB cells; Homo sapiens) | IC50 (HCMV; HFF host cells) | IC50 (Stationary HFF cells) | IC50 (Growing KB cells) | IC50 (HCMV; Human betaherpesvirus 5, HFF host cells) | IC50 (Stationary HFF cells; Homo sapiens)
0.15 µM | – | Nc1nc2c(ncn2COCCO)c(=O)[nH]1 [Acyclovir, reference compound] | > 100 µM | – | – | – | – | –
– | 4 µM | C=CCNc1nc(N)nc2c1ncn2/C=C1/C[C@@H]1CO [Compound 6, (Z,S)-(+)-2-Amino-6-allylamino-9-[(2-hydroxymethyl)cyclopropylidenemethyl]purine] | – | 1.8 µM | > 100 µM | > 100 µM | – | –
– | 6 µM | C#CCNc1nc(N)nc2c1ncn2/C=C1/C[C@@H]1CO [Compound 7, (Z,S)-(+)-2-Amino-6-propargylamino-9-[(2-hydroxymethyl)-cyclopropylidenemethyl]purine] | – | 3.5 µM | > 100 µM | > 100 µM | – | –
– | 2.5 µM | Nc1nc(NCC2CC2)c2ncn(/C=C3/C[C@@H]3CO)c2n1 [Compound 8, (Z,S)-(+)-2-Amino-6-cyclopropylmethylamino-9-[(2-hydroxymethyl)cyclopropylidenemethyl]purine] | – | 3.8 µM | > 100 µM | > 100 µM | – | –
– | 15 µM | CC(C)Nc1nc(N)nc2c1ncn2/C=C1/C[C@@H]1CO [Compound 9, (Z,S)-(+)-2-Amino-6-isopropylamino-9-[(2-hydroxymethyl)-cyclopropylidenemethyl]purine] | – | 3.8 µM | > 100 µM | > 100 µM | – | –
– | 25 µM | Nc1nc(NCc2ccccc2)c2ncn(/C=C3/C[C@@H]3CO)c2n1 [Compound 10, (Z,S)-(+)-2-Amino-6-benzylamino-9-[(2-hydroxymethyl)cyclopropylidenemethyl]purine] | – | > 100 µM | > 100 µM | > 100 µM | – | –
– | 15 µM | Nc1nc(NC2CCCCC2)c2ncn(/C=C3/C[C@@H]3CO)c2n1 [Compound 11, (Z,S)-(+)-2-Amino-6-cyclohexylamino-9-[(2-hydroxymethyl)-cyclopropylidenemethyl]purine] | – | > 100 µM | > 100 µM | > 100 µM | – | –
– | > 100 µM | Nc1nc(NCCO)c2ncn(/C=C3/C[C@@H]3CO)c2n1 [Compound 12, (Z,S)-(+)-2-Amino-6-(2-hydroxy)ethylamino-9-[(2-hydroxymethyl)cyclopropylidenemethyl]purine] | – | 39 µM | > 100 µM | > 100 µM | – | –
– | 1 µM | CCCOc1nc(N)nc2c1ncn2/C=C1/C[C@@H]1CO [Compound 13a, (Z,S)-(+)-2-Amino-6-propoxy-9-[(2-hydroxymethyl)cyclopropylidenemethyl]purine] | – | 0.26 µM | > 100 µM | > 100 µM | – | –
– | 7 µM | CCCCCOc1nc(N)nc2c1ncn2/C=C1/C[C@@H]1CO [Compound 13b, (Z,S)-(+)-2-Amino-6-pentyloxy-9-[(2-hydroxymethyl)cyclopropylidenemethyl]purine] | – | 0.21 µM | > 100 µM | > 100 µM | – | –
– | 1.5 µM | C=CCOc1nc(N)nc2c1ncn2/C=C1/C[C@@H]1CO [Compound 14, (Z,S)-(+)-2-Amino-6-allyloxy-9-[(2-hydroxymethyl)cyclopropylidenemethyl]purine] | – | 0.33 µM | > 100 µM | > 100 µM | – | –
– | 7 µM | Nc1nc(OCC2CC2)c2ncn(/C=C3/C[C@@H]3CO)c2n1 [Compound 15, (Z,S)-(+)-2-Amino-6-cyclopropylmethoxy-9-[(2-hydroxymethyl)cyclopropylidenemethyl]purine] | – | 0.32 µM | > 100 µM | > 100 µM | – | –
– | 1 µM | CCCSc1nc(N)nc2c1ncn2/C=C1/C[C@@H]1CO [Compound 16a, (Z,S)-(+)-2-Amino-6-propylthio-9-[(2-hydroxymethyl)cyclopropylidenemethyl]purine] | – | 0.22 µM | > 100 µM | > 100 µM | – | –
– | 7 µM | CCCCCSc1nc(N)nc2c1ncn2/C=C1/C[C@@H]1CO [Compound 16b, (Z,S)-(+)-2-Amino-6-pentylthio-9-[(2-hydroxymethyl)cyclopropylidenemethyl]purine] | – | 0.32 µM | > 100 µM | > 100 µM | – | –
– | > 100 µM | Nc1nc(S)c2ncn(/C=C3/C[C@@H]3CO)c2n1 [Compound 17, (Z,S)-(+)-2-Amino-6-thio-9-[(2-hydroxymethyl)cyclopropylidenemethyl]purine] | – | 37 µM | > 100 µM | > 100 µM | – | –
– | 35 µM | Nc1ncc2ncn(/C=C3/C[C@@H]3CO)c2n1 [Compound 18, (Z,S)-(+)-2-Amino-9-[(2-hydroxymethyl)cyclopropylidenemethyl]purine] | – | > 100 µM | > 100 µM | > 100 µM | – | –
– | – | Nc1nc(O)c2ncn(COC(CO)CO)c2n1 [Ganciclovir, reference compound] | – | – | – | – | 4.1 µM | > 100 µM
